Patent US20260286309A1, “DIFFERENTIATION OF IPSCS IN BIOREACTORS” (REPAIRON GMBH, priority 2022, published 2026)

Columns and labels:
iPSCs (TC1133) [1] = test: Cardiac differentiation of iPSCs in suspension (ambr15, 2-factor protocol CHIR/IWP4); assay type: cell-based, human
Protocol: The cardiac differentiation potential of iPSCs after long-term culture was assessed by direct differentiation into iPSC-CMs using a published 2-factor protocol (Chen et al., 2015). iPSC aggregates were differentiated in the ambr15 system and the medium was exchanged manually. Briefly, the basal medium on day 0-5 consisted of RPMI 1640+2% B-27 supplement without insulin. From day 6 onwards the basal medium was RPMI 1640+2% b-27 supplement. To initiate mesodermal differentiation, CHIR was added in varying concentrations on day 1. 5 μM IWP4 was added on day 2 and 3 or day 3 and 4 to initiate cardiac differentiation. A main goal of this project was to ensure that the cardiac differentiation potential remains in iPSCs that are cultivated with the developed expansion strategy. The cardiac differentiation potential was assessed by using a published protocol for the directed cardiac differentiation of PSCs in suspension culture (Chen et al., 2015). iPSCs in suspension were successfully differentiated into iPSC-CMs during early passages (Cultivation Optimization Run 12) and during late passages (Cultivation Optimization Run 13) of long-term cultures. Thereby, proof of concept was shown that iPSCs generated with the developed expansion strategy can be used to produce iPSC-CMs in suspension culture.

iPSCs (TC1133) [2] = test: Y27632 pretreatment before automatic passaging of iPSC aggregates in ambr15 suspension culture (Cultivation Optimization Run 08); assay type: cell-based, human
From the text: The nucleocounter NC-200 offers fast and reliable assessment of cell number and viability. Furthermore, it is GMP-compliant and is used during the production stage. Single cell suspensions may be directly measured with the NC-200, whereas suspensions with high content of cell clumps should be treated according to special protocols, supplied with the NC-200. These protocols include cell lysis to ensure distinguishability of single nuclei. However, large iPSC aggregates of about 70-250 μm, which were obtained in the suspension culture, could not be sufficiently lysed with the provided protocols within a reasonable time. Therefore, iPSC aggregates were digested using TrypLE before measurement with the NC-200. […] This suspension was then used for measurement with the NC-200 using the “Viability and Cell Count—A100 and B Assay” intended for small cell aggregates.
The pluripotency state of iPSCs was assessed by analyzing the pluripotency-related markers NANOG, TRA-1-60, and OCT4 using flow cytometry. iPSC aggregates were digested with TrypLE to achieve a near singe cell suspension. Subsequently the cells were fixed by adding Histofix to the cell suspension in a 1:1 ratio (resulting in 2% PFA). For analysis, the cells were stained with fluorochrome-conjugated antibodies. Dead cells were excluded from the analysis with Hoechst staining. Accordingly, the expression of a-Actinin and cTNT was analyzed to assess the success of cardiac differentiation.
The aggregate size was analyzed using a Cellavista device. Culture samples were transferred into a 24-well plate prepared with PBS (—Ca2+/—Mg2+) and measured with the Cellavista. Images were processed by the Cellavista software by applying a threshold to discriminate aggregates from background. The software FIJI (Schindelin et al., 2012) was subsequently used to analyze aggregate size.
To increase the degree of reaggregation, pretreatment with ROCK inhibitor Y27632 was tested. Pretreatment of iPSCs with Y27632 has been reported for other procedures that require cell singularization and are stressful for iPSCs (Chatterjee et al., 2011). […]

## Cc1c[nH]c(-c2cnc(NCCNc3ccc(C#N)cn3)nc2-c2ccc(Cl)cc2Cl)n1 [CHIR, CHIR99021]
iPSCs (TC1133) [1]; iPSCs of earlier passages (passage 0)
  optimal concentration for successful cardiac differentiation: 6 µM
iPSCs (TC1133) [1]; iPSCs of later passages (passage 8)
  optimal concentration for successful cardiac differentiation: 18 µM

## C[C@@H](N)[C@H]1CC[C@H](C(=O)Nc2ccncc2)CC1 [Y27632]
iPSCs (TC1133) [2]; day 3, passage 1, flow cytometry, Y27632 pretreatment
  expression of NANOG: 93%
iPSCs (TC1133) [2]; day 5, passage 1, 10 μM Y27632 pretreatment, Versene passaging
  expansion rate: 9 fold
iPSCs (TC1133) [2]; passage 1, Y27632 pretreatment
  aggregate size (mean): 162 μm
